Data from patent US4579841A, “Dipeptide derivatives having opiate activity” (University Patents, Inc., priority 1981, dated 1986).
Where a SMILES comes first, the peptide text is derived from it. [ ]: non-standard residue; d: D form.

System: electrically stimulated guinea pig ileum
Assay: In vitro assay on the electrically stimulated guinea pig ileum (Chipkin, et al.)
Assay type: cell-based
Conditions: potency relative to methionine-enkephalin=100
Experimental: Peptides were assayed for biological activity in vitro on the electrically stimulated guinea pig ileum, using the procedure described by Chipkin, et al. (Life Sciences 28:1517-1522, 1981). All potencies of the peptides in this assay are reported relative to the potency of methionine-enkephalin=100. Analgesic activity of the peptides in vivo was assayed by the tail-flick method following intracerebroventricular injection, as described in the Chipkin, et al., reference. The standard for this assay was Tyr-D-Ala-Gly-Phe-Met-amide.
*(Assay on the stimulated guinea pig ileum according to Chipkin, et al.;
standard peptide is methionineenkephalin.)

## NC(=O)[C@@H](Cc1ccccc1)NC(=O)[C@@H](N)Cc1ccc(O)cc1 [Tyr--D-Phe--NH2] (H-Tyr-[dF]-NH2)
  Relate In Vitro Potency: 0.1
